“Also recorded” adds a separate entry of the source.
Tested on: Sprague-Dawley rats (preference for drug-paired white chamber)
Assay: Conditioned Place Preference (CPP) conditioning and addiction with amphetamine, exploration on day 4 of withdrawal
Assay type: in vivo, male Sprague-Dawley rats
Text: A three (3) chambered CPP apparatus, measuring 75 cm×30 cm×25 cm, was employed. The single black, white and grey chambers could each be isolated from the other by a sliding door on either side of the central grey chamber. […] The floor of the white chamber was covered with shiny transparent Perspex; while the floor of the black chamber was covered with wire mesh and sawdust, creating two contrasting chambers with distinct visual and tactile cues, representing a biased paradigm. The apparatus was thoroughly cleaned with a dilute solution of disinfectant upon completion of exploration by each rat.
Twenty four (24), three (3) month old male Sprague-Dawley rats, weighing approximately 250-350 g each, were obtained from the University of the West Indies Faculty of Medical Sciences Animal House following ethical approval of the protocol by the FMS/UHWI/UWI Ethics Committee, on the Mona Campus of the University of the West Indies. Animals were housed in pairs, in a normal twelve (12) hour light: dark cycle and fed food and water ad libitum.
Phase 1: Pre-conditioning, selection and first group assignments: Animals were selected for inclusion in the experiment via pre-conditioning. They were allowed an initial twenty (20) minute exploration of the CPP apparatus, and scores of chamber entries and time counted from a video recording. Animals displaying ≥80% preference for the dark CPP chamber during pre-conditioning were selected and randomly assigned to one of two treatment groups, AMP or SAL, each containing twelve animals.
Phase 2: Conditioning: During the conditioning phase, rats assigned to the amphetamine treatment group (Group AMP) received 1 ml of amphetamine hydrochloride (sigma) dissolved in 0.9% saline, providing 5 mg/kg intraperitoneally (i.p.). Rats in Group SAL were given 1 ml of physiological saline intraperitoneally.
Conditioning consisted of 8 days of daily, group-assigned intraperitoneal injection and then immediate, individual confinement to the white, ‘aversive’ chamber for thirty (30) minutes. […]
Phase 3: Amphetamine addiction and drug withdrawal: On day 9, the addiction phase ensued, with a six (6) day period of exposure to a daily increasing amphetamine dose for the drug treated (Group AMP) animals. […] During this period, the number of entries made into each chamber and the time spent in each chamber were recorded for all rats via scores from video recordings of exploration.
All the resulting data were analyzed, using the SPSS 19 software. The mean percent time and entries into the white CPP chamber by each animal were scored from video recordings. […]

[1] = Groups AMP-S and AMP-N, amphetamine 5-7 mg/kg i.p., t-test, p<0.001, hydrochloride

With `CC(N)Cc1ccccc1.Cl` (stereo not shown) [Amphetamine, amphetamine hydrochloride] as the compound, how does the “percent time in the drug-paired white chamber during withdrawal versus saline treated groups” value (AMP-S and AMP-N combined n=12 versus SAL-S and SAL-N, p<0.01) read?
Its value is “significantly increased”.

What about the “percent entries into the drug-paired white chamber during withdrawal versus saline treated groups” value (AMP-S and AMP-N versus SAL-S and SAL-N, p<0.01) of the same compound?
Its value is “significantly higher”.

What about the “percent entries into the drug-paired white chamber during withdrawal versus pre-conditioning” value [1] of the same compound?
Its value is “significantly more entries; also recorded: significantly increased”.

And the “percent time in the drug-paired white chamber during withdrawal versus pre-conditioning” value [1]?
The value was “significantly more time; also recorded: significantly increased”.

Source: patent US20220339204A1, “METHOD AND COMPOSITION FOR AM[…] SEEKING BEHAVIOR” (priority 2018, published 2022)
